Test results reported in article PMC6270106, “Chemical Constituents from the Leaves of Annona reticulata and Their Inhibitory Effects on NO Production” (Molecules, 2013).
Like-named read-outs stand apart in the source and are kept apart here.

Columns and labels:
[1] = system: LPS-induced iNOS-dependent NO production in RAW 264.7 cells; test: Inhibition of LPS-induced iNOS-dependent NO production (Griess nitrite assay); assay type: cell-based, murine; conditions: RAW 264.7, 100 ng/mL LPS, 24 h; for NO level: nitrite by Griess, in µM (unit assumed); for inhibition at 12.5 µM / inhibition at 25 µM / inhibition at 50 µM / IC50 / inhibition at 100 µM: Mus musculus, RAW264.7; for inhibition at 12.5 µM: read-out: NO inhibition (% of control); for inhibition at 25 µM / inhibition at 50 µM / inhibition at 100 µM: read-out: NO inhibition (% of control) (converted)
Excerpt: The isolated compounds 1–9 were subjected into the examination of their effects on LPS-induced iNOS-dependent NO production in RAW 264.7 cells. […] The inhibitory effects of 1, 4 and 9 were less obvious. […] Among the tested compounds, 2, and 5–8 belonged to the ent-kaurane diterpenoids noted for the occurrence in the Annona species.
NO production was indirectly assessed by measuring the nitrite levels in the cultured media and serum determined by a colorimetric method based on the Griess reaction. The cells were incubated with a test sample in the presence of LPS (100 ng/mL) at 37 °C for 24 h. Then, cells were dispensed into 96-well plates, and 100 μL of each supernatant was mixed with the same volume of Griess reagent (1% sulfanilamide, 0.1% naphthyl ethylenediamine dihydrochloride, and 5% phosphoric acid) and incubated at room temperature for 10 min, the absorbance was measured at 540 nm with a Micro-Reader (Molecular Devices). By using sodium nitrite to generate a standard curve, the concentration of nitrite was measured form absorbance at 540 nm.
Experimental results were presented as the mean ± standard deviation (SD) of three parallel measurements. Statistical comparisons were made by Student’s t-test. IC50 values were estimated using a non-linear regression algorithm (SigmaPlot 8.0; SPSS Inc. Chicago, IL, USA). Statistical significance is expressed as * p < 0.05, ** p < 0.01, and *** p < 0.001.

[2] = system: RAW 264.7 cells
Method: (§1) A murine macrophage cell line RAW264.7 (BCRC No. 60001) was purchased from the Bioresources Collection and Research Center (BCRC) of the Food Industry Research and Development Institute (Hsinchu, Taiwan). Cells were cultured in plastic dishes containing Dulbecco’s Modified Eagle Medium (DMEM, Sigma, St. Louis, MO, USA) supplemented with 10% fetal bovine serum (FBS, Sigma, USA) in a CO2 incubator (5% CO2 in air) at 37°C and subcultured every 3 days at a dilution of 1:5 using 0.05% trypsin–0.02% EDTA in Ca^2+-, Mg^2+- free phosphate-buffered saline (DPBS).
(§2) Cells (2 × 10^5) were cultured in 96-well plate containing DMEM supplemented with 10% FBS for 1 day to become nearly confluent. Then cells were cultured with samples in the presence of 100 ng/mL LPS for 24 h. After that, the cells were washed twice with DPBS and incubated with 100 μL of 0.5 mg/mL MTT for 2 h at 37 °C testing for cell viability. The medium was then discarded and 100 μL dimethyl sulfoxide (DMSO) was added. After 30-min incubation, absorbance at 570 nm was read using a microplate reader (Molecular Devices, Sunnyvale, CA, USA).

[3] = system: LPS-induced RAW264.7 macrophages; parameters: method as in PMID 21211951; conditions: cited from earlier work
[4] = system: RAW 264.7 cells; test: Cell viability (MTT) in the presence of LPS; conditions: RAW 264.7, 100 ng/mL LPS, 24 h; for Cell viability (% of control): MTT; for Cell toxicity (in words): 12.5–100 μM
Method: as §1, §2

[5] = system: macrophages; parameters: method as in PMID 23333629; conditions: by interfering with the activation of TAK1 and Akt, preventing NF-κB activation; cited from earlier work
[6] = system: platelet aggregation; parameters: method as in PMID 12398544; conditions: isolated from the stems of A. squamosa; cited from earlier work

IC50 [1] | SMILES | NO level ([1]; 12.5 μM) | NO level ([1]; 25 μM) | inhibition at 12.5 µM ([1]; 12.5 μM) | inhibition at 25 µM ([1]; 25 μM) | Inhibitory effect on NO production (in words) [1] | NO level ([1]; 50 μM) | inhibition at 50 µM ([1]; 50 μM) | Cell viability (% of control) ([4]; 12.5 μM) | Cell viability (% of control) ([4]; 25 μM) | Cell viability (% of control) ([4]; 50 μM) | Cell viability (% of control) ([4]; 100 μM) | Cell toxicity (in words) [4] | NO level ([1]; 100 μM) | inhibition at 100 µM ([1]; 100 μM) | also measured
 | C=C(C)C(CC[C@@H](CO)[C@H]1CC[C@@]2(C)C3CCC4C(C)(C)[C@@H](O)[C@H](O)C[C@@]45C[C@@]35CC[C@]12C)C(C)C (stereo partly shown) [Compound 1, annonaretin A] | 36.6 ± 1.9 | 33.5 ± 0.9 | 19.3 ± 4.2% | 26.2% | less obvious |  |  |  |  |  |  |  |  |  | Cell viability (% of control) ([2]; 12.5 µM): 88.0 ± 1.5 % of control; Cell viability (% of control) ([2]; 25 µM): 81.2 ± 1.8 % of control; Cell viability (% of control) ([2]; 50 µM): 73.0 ± 3.6 % of control; Cell viability (% of control) ([2]; 100 µM): 66.9 ± 5.5 % of control
50 ± 0.3 µM | C=C1C[C@@]23CC[C@H]4[C@@](C)(CCC[C@@]4(C)C(=O)O)[C@@H]2CC[C@@H]1C3 [Compound 2, kaurenoic acid] | 34.3 ± 4.7 | 35.1 ± 1.2 | 24.5 ± 10.2% | 22.7% |  | 22.7 ± 0.5 | 50% | 98.0 ± 2.2 % of control | 91.0 ± 3.6 % of control | 82.9 ± 1.2 % of control | 65.7 ± 8.6 % of control | Some cell toxicity was observed |  |  | Inhibition of NO production, prostaglandin E2 release, cyclooxygenase-2 and inducible nitric oxide synthase expression (in words) [3]: inhibit NO production
99.8 ± 0.4 µM | CC1(C)CC[C@]2(C)CC=C3[C@]4(C)CC[C@H]5C(C)(C)[C@@H](O)CC[C@]5(C)[C@H]4CC[C@@]3(C)[C@@H]2C1 [Compound 3, taraxerol] | 38.5 ± 2.3 | 39.5 ± 0.6 | 15.2 ± 5% | 13.1% |  | 35.6 ± 0.9 | 21.6% | 93.5 ± 1.8 % of control | 92.6 ± 3.1 % of control | 88.7 ± 1.8 % of control | 81.4 ± 2.3 % of control |  | 22.6 ± 0.4 | 50.1% | Expression of proinflammatory mediators (in words) [5]: downregulate the expression of proinflammatory mediators
 | CC[C@H](CC[C@@H](C)[C@H]1CC[C@H]2[C@@H]3CC=C4C[C@@H](O)CC[C@]4(C)[C@H]3CC[C@]12C)C(C)C [Compound 4, β-sitosterol] | 38.4 ± 0.7 | 38.6 ± 3.3 | 15.5 ± 1.5% | 15.1% | less obvious |  |  | 82.8 ± 2.7 % of control | 80.7 ± 3.8 % of control | 65.3 ± 2.3 % of control | 55.8 ± 2.7 % of control | Some cell toxicity was observed |  |  | 
48.6 ± 1.2 µM | C[C@@]12CCC[C@](C)(C=O)C1CCC13CC(CCC12)C(C(=O)O)C3 (stereo partly drawn) [Compound 5, 16α-hydro-19-al-ent-kauran-17-oic acid] | 38.3 ± 1.3 | 33.1 ± 1.0 | 15.5 ± 2.8% | 27.1% |  | 22.1 ± 1.5 | 51.4% | 98.9 ± 5.2 % of control | 96.5 ± 9.2 % of control | 95.9 ± 8.6 % of control | 80.2 ± 5.7 % of control |  | 14.8 ± 0.7 | 67.3% | Anti-platelet aggregation activity (in words) [6]: exhibit anti-platelet aggregation activity
54.5 ± 0.8 µM | C[C@@]12CCC[C@](C)(C(=O)O)C1CCC13CC(CCC12)C(C(=O)O)C3 (stereo partly drawn) [Compound 8, 16α-hydro-ent-kauran-17,19-dioic acid] | 39.8 ± 1.2 | 35.4 ± 0.8 | 12.3 ± 2.6% | 21.9% |  | 23.5 ± 0.9 | 48.2% | 98.4 ± 3.2 % of control | 94.0 ± 2.6 % of control | 88.6 ± 2.6 % of control | 82.4 ± 1.2 % of control |  | 14.4 ± 0.3 | 68.3% | melting point: 120 to 121 °C
 | COc1ccc([C@@H]2CC(=O)c3ccc(OC)cc3O2)cc1 [Compound 9, (2S)-di-O-methylquiritigenin] | 42.0 ± 1.2 | 40.4 ± 0.7 | 7.5 ± 2.7% | 11% | less obvious | 25.9 ± 2.3 | 42.9% | 99.9 ± 4.8 % of control | 90.0 ± 1.6 % of control | 82.6 ± 2.7 % of control | 76.2 ± 1.1 % of control | Some cell toxicity was observed |  |  | 

SMILES | IC50 [1] | NO level ([1]; 12.5 μM) | NO level ([1]; 25 μM) | inhibition at 12.5 µM ([1]; 12.5 μM) | inhibition at 25 µM ([1]; 25 μM) | Inhibitory effect on NO production (in words) [1] | NO level ([1]; 50 μM) | inhibition at 50 µM ([1]; 50 μM) | Cell viability (% of control) ([4]; 12.5 μM) | Cell viability (% of control) ([4]; 25 μM) | Cell viability (% of control) ([4]; 50 μM) | Cell viability (% of control) ([4]; 100 μM) | Cell toxicity (in words) [4] | NO level ([1]; 100 μM) | inhibition at 100 µM ([1]; 100 μM) | also measured
CC[C@H](CC[C@@H](C)[C@H]1CC[C@H]2[C@@H]3C[C@@H](O)C4=CC(=O)CC[C@]4(C)[C@H]3CC[C@]12C)C(C)C [Compound 6, 6β-hydroxystigmast-4-en-3-one] | 51.5 ± 0.5 µM | 37.0 ± 1.8 | 33.1 ± 2.4 | 18.5 ± 4% | 27.1% |  | 22.9 ± 1.1 | 49.5% | 94.8 ± 3.1 % of control | 83.7 ± 3.5 % of control | 83.5 ± 3.0 % of control | 81.3 ± 2.8 % of control |  | 15.1 ± 0.3 | 66.7% | 
CC(=O)OCC1CC23CCC4[C@@](C)(CCC[C@]4(C)C(=O)O)C2CCC1C3 (stereo partly drawn) [Compound 7, 17-acetoxy-16β-ent-kauran-19-oic acid] | 55.5 ± 0.3 µM | 42.6 ± 0.7 | 40.6 ± 2.8 | 6.2 ± 1.5% | 10.6% |  | 23.7 ± 0.2 | 47.7% | 98.6 ± 3.1 % of control | 93.6 ± 4.0 % of control | 92.5 ± 2.8 % of control | 83.7 ± 1.6 % of control |  | 14.3 ± 0.3 | 68.5% | 
